From US12054495B2, “Substituted macrocyclic compounds and related methods of treatment” (Alkermes, Inc., priority 2019, dated 2024)
Where two headings read alike, the source gives them in different places.

How the values were obtained:
[1] = system: human hepatocytes; experiment: Hepatocytes stability assay (human hepatocytes); type: in vitro ADME; settings: scaled hepatic clearance divided by liver blood flow, fu assumed unity
Experimental: (§1) In vitro metabolic stability was assessed using cryopreserved hepatocytes from male Sprague Dawley rats and a pool of 50 mixed gender humans (BioIVT, Baltimore, MD). The incubation mixtures were prepared by mixing 250 μL of pre-warmed KHB (Krebs-Henseleit buffer) containing 2×10^6 cell/mL of hepatocytes with 250 μL of pre-warmed KHB buffer containing 2 μM of test compounds in a 48-well plate, giving a final concentration of 1 μM test compound (0.1% DMSO) and 1×10^6 cell/mL of hepatocytes. The reaction mixture was incubated at 37 degrees C. A 50 μL aliquot of incubation mixture was taken at time points (0, 15, 30, 60, 120 and 240 minutes) and transferred into a 96-well plate containing 300 μL ice-cold acetonitrile (containing 30 ng/mL of labetalol and 10 ng/mL of Naltrexone-d3 as internal standards) and immediately placed in ice to terminate the reaction. Samples were centrifuged, and supernatants were transferred into 96-well plates for liquid chromatography with tandem mass spectrometry (LC-MS/MS) analysis to monitor the depletion of the test compound.
(§2) Data was calculated as percent remaining by assuming zero-minute time point peak area ratio (analyte/IS) as 100% and dividing remaining time point peak area ratios by zero-minute time point peak area ratio. Data were fitted to a first-order decay model to determine half-life. From a plot of log (ln) peak area against time, the slope of the line was determined. Subsequently, half-life (T1/2) and intrinsic clearance (CLint) were calculated using the equations below: Elimination rate constant (k)=(−slope) Half-life (T1/2)min=0.693/k Intrinsic Clearance (CLint) (mL/min/million cells)=(V×0.693)/T1/2 V=incubation volume mL/number of cells The in vitro T1/2 was converted to in vitro intrinsic clearance (CLint,hep) in units of mL/min/kg using the formula shown below:
(§3) [formula] The in vitro intrinsic clearance (CLint,hep) was scaled to in vivo hepatic clearance (CL,hep) using the following equation which was adapted from a well-stirred model.
(§4) [formula] where Q is the liver blood flow and fu is the fraction unbound (assumed to be unity in this case). All parameters used in the calculation are shown below (Table 4).
(§5) The extraction ratio (ER) was calculated by dividing the hepatic clearance of a compound to the liver blood flow. The data reported in Table 5 were obtained according to the human hepatocytes stability assay described above.

[2] = Hepatocytes stability assay (human hepatocytes); type: in vitro ADME; settings: both sexes, cryopreserved hepatocytes, 1 μM test compound, 1×10^6 cell/mL, 37 degrees C, read-out: CLint (μL/min/million cells)
Experimental: as §1, §2, §3, §4, §5

[3] = system: MDR1; experiment: MDCK-MDR1 permeability assay; type: in vitro ADME; settings: dog; for Papp A→B at 2 h, 3 μM: MDCK-MDR1, MDCK-MDR1 cells, apical to basolateral, 3 μM test compound, 2 hours at 37 degrees C; for efflux ratio at 2 h, 3 μM: MDCK-MDR1, Papp (basolateral to apical) divided by Papp (apical to basolateral), MDCK-MDR1 cells, read-out: Efflux ratio (ER)
Experimental: The bidirectional permeability (Apical to Basal and Basal to Apical directions) of test compounds in MDCK-MIDR1 cells were evaluated using MDCK-MIDR1 cells seeded in Solvo PreadyPort™ MIDCK 96-well plate. Once the plate was received from ReadyCell (Barcelona, Spain), it was treated as per PreadyPort™ user's manual.
For the Apical to Basolateral (A→B) permeability, 80 μL of test compound (3 μM) co-dosed with LY (Lucifer Yellow) (100 μM) in HBSS (Hank's Balanced Salt Solution) assay buffer was added to the donor side (A) while 250 μL of HBSS buffer was added to the receiver side (B). For the Basolateral to Apical (B→A) permeability, 255 μL of test compound (3 μM) in HBSS assay buffer was added to the donor side (B) while 75 μL of HBSS buffer containing LY (100 μM) was added to the receiver side (A).
The plate was placed in an incubator set at 37 degrees C. After 10 minutes of pre-warming, 5 μL aliquot was taken from donor compartment and set aside as the dosing solution. The MDCK-MDR1 incubation plate was placed back into the incubator for 2 hours of incubation at 37 degrees C. After 2 hours of incubation, 25 μL and 5 μL aliquots were removed from the receiver and donor sides, respectively. To the 5 μL aliquots taken from the donor sides (before and after a 2-hour incubation) were diluted with 20 μL of the HBSS buffer. All samples were mixed with 150 μL with acetonitrile containing internal standard (IS) and 200 μL water, and analyzed by LC-MS/MS.
The apparent permeability (Papp) was calculated using the following formula: Papp=dQ/dt×1/A×C0 where: • dQ/dt: amount of translocated material over incubation time (nmol/s) • A: area of insert (0.14 cm^2 for PreadyPort™ MDR1-96) • C0: initial concentration of product applied in apical (A→B) or basal (B→A) compartment (nmol/mL)
The efflux ratio (ER) was measured by dividing the Papp (basolateral to apical direction) by Papp (apical to basolateral direction). It is a general measure of the involvement of active processes. An ER>2 is considered positive for active transport.
The data reported in Table 3 were obtained according to the MDCK-MIDR1 permeability assay described above.

[4] = molecular target: T1, human orexin-2 receptor (OX2R) (Homo sapiens, UniProt O43614); experiment: Human OX2R IP1 assay; type: cell-based; settings: T-Rex CHO cells stably overexpressing human OX2R, IP1 accumulation, 1 hr at 37 degrees C; mean EC50; ∧ = racemic mixture
T1 construct: expressed in transfected cells
T1 sequence (O43614 1-444): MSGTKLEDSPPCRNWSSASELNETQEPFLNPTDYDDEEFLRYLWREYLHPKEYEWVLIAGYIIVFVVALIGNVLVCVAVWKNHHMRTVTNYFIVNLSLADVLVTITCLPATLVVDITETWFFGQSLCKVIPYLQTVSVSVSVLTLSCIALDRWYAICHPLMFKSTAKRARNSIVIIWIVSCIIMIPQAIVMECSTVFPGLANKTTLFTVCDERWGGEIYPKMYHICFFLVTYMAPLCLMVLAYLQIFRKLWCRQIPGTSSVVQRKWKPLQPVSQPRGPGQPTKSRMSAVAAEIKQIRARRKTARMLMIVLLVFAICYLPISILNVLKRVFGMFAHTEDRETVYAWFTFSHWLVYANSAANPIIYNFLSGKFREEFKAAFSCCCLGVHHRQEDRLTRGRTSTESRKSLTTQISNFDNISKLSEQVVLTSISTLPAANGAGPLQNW
Experimental: T-Rex CHO cells stably overexpressing the human orexin-2 receptor (OX2R) were induced overnight with 1 μg/mL of doxycycline in a T225 flask. 24 hours post induction, cells were lifted with accutase and plated into a 384-well proxy plate at 30,000 cells/well. Cells were then treated with different test compounds in 1× stimulation buffer containing 10 mM Hepes, 1 mM CaCl2), 0.5 mM MgCl2, 4.2 mM KCl, 146 mM NaCl, 5.5 mM glucose, and 50 mM LiCl, pH 7.4, for 1 hr at 37 degrees C. Following incubation, the reaction was terminated by the addition of detection mix, which is composed of IP1-d2 and anti-IP1-cryptate diluted in lysis buffer as well as 1× stimulation buffer. The plates were allowed to incubate for 1 hour at room temperature and were then read in the EnVision® multimode plate reader, measuring inositol phosphate levels.
Cisbio IP1 is a cell-based functional assay quantifying the accumulation of inositol monophosphate (IP), a metabolite released as a result of orexin 2 receptor activation through the phospholipase C-Gq signaling pathway. This is a competitive immunoassay in which the IP1 produced by the cells upon receptor activation competes with the IP1 analog coupled to the d2 fluorophore (acceptor) for binding to an anti-IP1 monoclonal antibody labeled with Eu cryptate (donor). The measured HTRF-FRET based signal is inversely proportional to the IP1 concentration produced.
The EC50 values reported in Table 2 were obtained according to the human OX2R IP1 assay described above. Data are the mean EC50 values ±S.E.M. The compound methyl (2R,3S)-3-((methylsulfonyl)amino)-2-(((cis-4-phenylcyclohexyl)oxy)methyl)-piperidine-1-carboxylate is a reference compound which is disclosed in Example 5 of PCT publication no. WO2017/135306.

[5] = amide bond, 13-membered ring, HATU/DIEA, MeCN

SMILES	Extraction Ratio (ER) [1]	hepatocyte CLint at 1 μM [2] [µL/min/1e6 cells]	Papp A→B at 2 h, 3 μM [3] [×10⁻⁶ cm/s]	efflux ratio at 2 h, 3 μM [3]	EC50 [4] [nM]	ring closure, isolated yield ([5]; from CC(C)(C)OC(=O)N[C@H]1CCCN[C@H]1COC1CC=C(c2c(F)cccc2OCC(=O)O)CC1, 2.1 mM, 2.0 h) [%]	ring closure, isolated yield ([5]; from CC(C)(C)OC(=O)N[C@H]1CCCN[C@H]1COC1CCC(c2ccnnc2OCC(=O)O)CC1, 0.94 mM, 25.0 °C, 2.0 h) [%]	ring closure, isolated yield ([5]; from CC(C)(C)OC(=O)N[C@H]1CCCN[C@H]1COC1CCC(c2nccnc2OCC(=O)O)CC1, 2.16 mM, 1.0 h) [%]
C[C@H]1COc2ccccc2C2CCC(CC2)OCC2[C@@H](NS(C)(=O)=O)CCCN21 (stereo partly drawn) [Compound 62]	0.89	18	6.8	2.2	> 1000	–	–	–
CC(C)(C)OC(=O)N[C@H]1CCCN2C(=O)COc3cccc(F)c3C3=CCC(CC3)OC[C@@H]12 (stereo partly drawn)	–	–	–	–	–	71	–	–
CC(C)(C)OC(=O)N[C@H]1CCCN2C(=O)COc3nnccc3C3CCC(CC3)OC[C@@H]12	–	–	–	–	–	–	76	–
CC(C)(C)OC(=O)N[C@H]1CCCN2C(=O)COc3nccnc3C3CCC(CC3)OC[C@@H]12	–	–	–	–	–	–	–	42.1
C[C@@H]1Oc2ccccc2C2CCC(CC2)OCC2[C@@H](NS(C)(=O)=O)CCCN2C1=O (stereo partly drawn) [Compound 37]	0.82	30	0.91	27	< 100	–	–	–

Second part, led by results:

Extraction Ratio (ER) [1]	hepatocyte CLint at 1 μM [2] [µL/min/1e6 cells]	Papp A→B at 2 h, 3 μM [3] [×10⁻⁶ cm/s]	efflux ratio at 2 h, 3 μM [3]	EC50 [4] [nM]	SMILES	ring closure, isolated yield ([5]; from CC(C)(C)OC(=O)N[C@H]1CCCN[C@H]1COC1CC=C(c2c(F)cccc2OCC(=O)O)CC1, 2.1 mM, 2.0 h) [%]	ring closure, isolated yield ([5]; from CC(C)(C)OC(=O)N[C@H]1CCCN[C@H]1COC1CCC(c2ccnnc2OCC(=O)O)CC1, 0.94 mM, 25.0 °C, 2.0 h) [%]	ring closure, isolated yield ([5]; from CC(C)(C)OC(=O)N[C@H]1CCCN[C@H]1COC1CCC(c2nccnc2OCC(=O)O)CC1, 2.16 mM, 1.0 h) [%]
0.70	16	1.2	21	< 100	[2H][C@@H]1[C@@H]2C[C@H]([2H])[C@@]([2H])(c3cc(F)cc(F)c3OCC(=O)N3CCC[C@H](NS(C)(=O)=O)C3CO2)[C@@H]1[2H] (stereo partly drawn) [Compound 50]	–	–	–
0.90	60	7.3	1.5	< 100	C[C@H]1CN2CCC[C@H](NS(C)(=O)=O)C2COC2CCC(CC2)c2ccccc2O1 (stereo partly drawn) [Compound 48]	–	–	–
<0.22	< 1.9	0.15	12	100 to 1000	CS(=O)(=O)N[C@@H]1CCCN2C(=O)COc3ccncc3[C@H]3CC[C@H](CC3)OC[C@H]12 (racemic) [Compound 45]	–	–	–
0.82	30	0.77	18	< 100	C[C@H]1Oc2ccccc2C2CCC(CC2)OCC2[C@@H](NS(C)(=O)=O)CCCN2C1=O (stereo partly drawn) [Compound 38]	–	–	–
